≈ marks a conversion by molar mass, not a printed value. Calls of active or inactive are those of the source. The rule behind the calls is not given here.
Assays:
[1] = system: Mycobacterium tuberculosis; test: Antitubercular activity against Mycobacterium tuberculosis H37Rv at 5 ug/ml measured twice a week for 3 weeks by Ziehl-Neelsen staining; format: functional, organism-based
[2] = system: Mycobacterium tuberculosis; test: Antitubercular activity against Mycobacterium tuberculosis H37Rv at 10 ug/ml measured twice a week for 3 weeks by Ziehl-Neelsen staining; format: functional, organism-based
Mus musculus = species on record: Mus musculus; test: Toxicity in Mus musculus (mouse) assessed as irritation; format: organism-based; conditions: in vivo
HeLa = test: Cytotoxicity against Homo sapiens (human) HeLa cells assessed as cell mortality after 24 to 72 hr by inverted microscopic analysis; format: functional
[3] = system: Mycobacterium tuberculosis; test: Antitubercular activity against Mycobacterium tuberculosis H37Rv at 25 ug/ml measured twice a week for 3 weeks by Ziehl-Neelsen staining; format: functional, organism-based
[4] = system: Mycobacterium tuberculosis; test: Antitubercular activity against Mycobacterium tuberculosis H37Rv measured twice a week for 3 weeks by Ziehl-Neelsen staining; format: functional; conditions: 504 h

SMILES | Activity [1] | Activity [2] | Activity (Mus musculus) | Activity (HeLa) [µg/mL] | Activity [3] | MIC [4] [µg/mL]
CC(=O)NC1=NN(C(C)=O)C(c2cc3ccccc3nc2Cl)S1 (stereo not drawn) | inactive | Active | Non-toxic | 15 | Active | –
COc1cccc2cc(C3SC(NC(C)=O)=NN3C(C)=O)c(Cl)nc12 (stereo not drawn) | inactive | Active | Non-toxic | 15 | Active | 5 (≈ 13.2 µM)
COc1ccc2nc(Cl)c(C3SC(NC(C)=O)=NN3C(C)=O)cc2c1 (stereo not drawn) | inactive | Active | Non-toxic | 10 | Active | –
CC(=O)NC1=NN(C(C)=O)C(c2cc3cc(C)ccc3nc2Cl)S1 (stereo not drawn) | inactive | Active | Non-toxic | 10 | Active | –
COc1ccc2cc(C3SC(NC(C)=O)=NN3C(C)=O)c(Cl)nc2c1 (stereo not drawn) | inactive | Active | Non-toxic | 15 | Active | –
CC(=O)NC1=NN(C(C)=O)C(c2cc3cc(Br)ccc3nc2Cl)S1 (stereo not drawn) | inactive | Active | Non-toxic | 20 | Active | –
CN[C@@H]1[C@H](O[C@H]2[C@H](O[C@H]3[C@H](O)[C@@H](O)[C@H](N=C(N)N)[C@@H](O)[C@@H]3N=C(N)N)O[C@@H](C)[C@]2(O)C=O)O[C@@H](CO)[C@H](O)[C@H]1O [STREPTOMYCIN] | – | – | – | – | – | 10 (≈ 17.2 µM)
CC(=O)NC1=NN(C(C)=O)C(c2cc3ccc(C)cc3nc2Cl)S1 (stereo not drawn) | inactive | Active | Non-toxic | 20 | Active | –
CC(=O)NC1=NN(C(C)=O)C(c2cc3ccc(Cl)cc3nc2Cl)S1 (stereo not drawn) | inactive | Active | Non-toxic | 20 | Active | –
COc1cc2cc(C3SC(NC(C)=O)=NN3C(C)=O)c(Cl)nc2cc1OC (stereo not drawn) | inactive | Active | Non-toxic | 10 | Active | –
CC(=O)NC1=NN(C(C)=O)C(c2cc3cccc(C)c3nc2Cl)S1 (stereo not drawn) | inactive | Active | Non-toxic | 25 | Active | 5 (≈ 13.8 µM)

Source: ChEMBL document CHEMBL3045514, “An efficient one-pot cyclization of quinoline thiosemicarbazones to quinolines derivatized with 1,3,4-thiadiazole as anticancer and anti-tubercular agents” (Med Chem Res, 2012)
